# Several values for one entry are separate records, joined by “and”; a condition that tells them apart may be missing. Identical values can stand only once.
# How the values were obtained:
# wild-type Efl1•Sdo1 = tested on: wild-type Efl1•Sdo1; parameters: method as in PMID 30780079; settings: −Mg^2+, cited from earlier work
# Efl1 R1086Q = target: T1, Efl1 R1086Q (Saccharomyces cerevisiae, UniProt P53893, R1086Q); test: Isothermal titration calorimetry (ITC): binding of guanine nucleotides or Sdo1 to Efl1 R1086Q; settings: for Kd / -TΔSb / ΔGb / ΔHb / ΔCpb: guanine nucleotide; for ΔCpb: from ΔHb at 25–35 °C
# T1 construct: made in house; host or cells: Saccharomyces cerevisiae
# Protocol: All calorimetric measurements were carried out using MicroCal^TM iTC200 System (GE Healthcare, Northampton, MA, USA) in a temperature range of 25–35 °C. Experiments were performed in a buffer consisting of 50 mM Tris-HCl (pH 8.0), 150 mM NaCl, 100 µM DTT, and 5% glycerol. In the titrations with Mg^2+-bound nucleotides, both the ligand and protein solutions contained 5 mM MgCl2. In the case of titrations with Mg^2+-free nucleotide, both the ligand and protein solutions were supplemented with 2 mM EDTA to sequester any residual trace of metal ions in solution. Protein samples and ligands were prepared in the exact same buffer prior to each titration. Protein concentration in the cell comprised 30–50 µM GTPase, while the ligand concentration in the syringe was 2–3 mM for GTP, MgGTP, GDP, and MgGDP. To ensure measuring the interaction of the complex Efl1 R1086Q•Sdo1 with the nucleotide, an eight-fold concentration excess of Sdo1 was used compared with that of the enzyme. […] The titration schedule consisted of 15–20 consecutive injections of the ligand with 5 min intervals between injections and a stirring rate of 700 rpm. The dilution heat of the ligand was obtained by adding the ligand to a buffer solution under identical conditions and with the same injection schedule used for the protein sample. All samples were degassed for 10 min prior to the experiment.
# The binding isotherms obtained for the isolated GTPase in the presence of Mg(II) were analysed using a ternary model in which the protein can bind to the free nucleotide (G(D)TP) or that bound to one magnesium ion (MgG(D)TP); additionally, GTP may also exist in the form of Mg2GTP, which is not recognised by the protein. The derivation of this coupled-equilibria model can be reviewed in [6, 31]. The binding constant (Kb), the enthalpy change (∆Hb), and the stoichiometry (n) were obtained with the non-linear routines implemented in Origin 5.0 (OriginLab, Co., Northampton, MA, USA) using a one-binding-site model as described in [32, 33]. The heterotropic cooperativity for the binding of guanine nucleotides and Sdo1 to Efl1 R1086Q were calculated as previously described in [6, 32]. The cooperative effects of Mg(II) on the binding of guanine nucleotides to Efl1 R1086Q alone and bound to Sdo1 were calculated as follows:κ = KE-MG/KE-G κ = KES-MG/KES-G Δh = ΔHE-MG − ΔHE-G Δh = ΔHES-MG − ΔHES-G where subscripts E-MG and E-G stand for the association of the metal-bound and metal-free guanine nucleotide with mutant Efl1, respectively. Corresponding expressions applied to the heterotropic cooperativity of the binding of nucleotides to the preformed complex, Efl1•Sdo1 (ES).
# The impact of Sdo1 on the binding of Efl1 R1086Q to guanine nucleotides in the presence of magnesium ions is contained in KES-MG and ΔHES-MG relative to the KE-S and ΔHE-S values; analogous ratios report the effects in the absence of Mg(II):κ = KES-MG/KE-S κ = KES-G/KE-G Δh = ΔHES-MG − ΔHE-S Δh = ΔHES-G − ΔHE-G
# The corresponding cooperative entropy change was calculated as:TΔs = Δh − Δg = Δh + RTlnκ
# The detailed methodology and equations to compute the changes in the accessible surface area (∆ASA) of the GTPase upon binding to nucleotides and the ∆S energetic-based parameters are reported in [6]. Briefly, the water-accessible areas (ASAs) were computed using programme NACCESS, while the changes in accessible surface area (ΔASA) upon the formation of each GTPase–nucleotide complex were estimated considering the difference between the complex and the sum of the free interacting partners. The calculated polar (ΔASAp) and apolar (ΔASAap) area changes were subsequently used to estimate the free molecular partners. […]
# [1] = Effect of Mg^2+, Efl1 R1086Q − Sdo1, 25 °C
# [2] = Effect of Mg^2+, Efl1 R1086Q − Sdo1, 30 °C
# [3] = Effect of Mg^2+, Efl1 R1086Q − Sdo1, 35 °C
# [4] = Effect of Sdo1, Efl1 R1086Q + Mg^2+, 25 °C
# [5] = Effect of Sdo1, Efl1 R1086Q + Mg^2+, 30 °C
# [6] = Effect of Sdo1, Efl1 R1086Q + Mg^2+, 35 °C
# [7] = Effect of Sdo1, Efl1 R1086Q − Mg^2+, 25 °C
# [8] = Effect of Sdo1, Efl1 R1086Q − Mg^2+, 30 °C
# [9] = Effect of Sdo1, Efl1 R1086Q − Mg^2+, 35 °C
# T1 sequence (P53893 whole entry R1086Q): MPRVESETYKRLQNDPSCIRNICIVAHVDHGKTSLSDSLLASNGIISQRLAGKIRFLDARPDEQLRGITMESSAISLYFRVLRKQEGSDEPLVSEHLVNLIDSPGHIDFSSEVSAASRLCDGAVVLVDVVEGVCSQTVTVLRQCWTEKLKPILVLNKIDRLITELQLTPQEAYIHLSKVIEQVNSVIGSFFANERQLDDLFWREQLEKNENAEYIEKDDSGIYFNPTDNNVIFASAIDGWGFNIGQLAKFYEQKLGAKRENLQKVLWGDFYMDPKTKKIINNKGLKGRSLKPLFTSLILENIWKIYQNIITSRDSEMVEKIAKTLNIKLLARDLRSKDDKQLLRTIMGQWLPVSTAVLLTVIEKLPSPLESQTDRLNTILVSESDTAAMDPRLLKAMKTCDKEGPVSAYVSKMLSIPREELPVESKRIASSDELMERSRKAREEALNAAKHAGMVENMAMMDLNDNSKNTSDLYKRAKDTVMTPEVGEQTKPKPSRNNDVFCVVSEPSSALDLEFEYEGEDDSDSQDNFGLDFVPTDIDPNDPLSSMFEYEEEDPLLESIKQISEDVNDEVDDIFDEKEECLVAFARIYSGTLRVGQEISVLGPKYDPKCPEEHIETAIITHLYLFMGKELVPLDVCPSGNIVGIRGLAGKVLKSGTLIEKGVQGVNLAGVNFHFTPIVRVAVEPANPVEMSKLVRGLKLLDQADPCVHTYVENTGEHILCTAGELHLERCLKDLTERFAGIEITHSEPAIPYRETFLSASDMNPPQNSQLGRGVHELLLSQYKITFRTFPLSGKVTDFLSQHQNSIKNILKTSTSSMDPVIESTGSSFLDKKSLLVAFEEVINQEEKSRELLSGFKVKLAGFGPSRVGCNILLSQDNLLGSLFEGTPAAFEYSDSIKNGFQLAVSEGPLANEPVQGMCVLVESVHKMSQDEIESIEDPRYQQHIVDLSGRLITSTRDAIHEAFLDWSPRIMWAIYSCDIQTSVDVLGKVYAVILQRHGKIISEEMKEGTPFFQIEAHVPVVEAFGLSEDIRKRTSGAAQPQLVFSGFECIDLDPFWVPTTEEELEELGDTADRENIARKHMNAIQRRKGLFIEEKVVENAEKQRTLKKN
structure (smiles),measurement,setting,value
Nc1nc2c(ncn2[C@@H]2O[C@H](COP(=O)(O)OP(=O)(O)O)[C@@H](O)[C@H]2O)c(=O)[nH]1 [GDP],-TΔSb,wild-type Efl1•Sdo1; 30 °C,1.5 kcal/mol
same,Kd,wild-type Efl1•Sdo1; 30 °C,52 µM
same,ΔGb,wild-type Efl1•Sdo1; 30 °C,-5.9 kcal/mol
same,ΔHb,wild-type Efl1•Sdo1; 30 °C,-7.4 ± 0.0 kcal/mol
same,ΔCpb,wild-type Efl1•Sdo1,−640 cal mol^−1 K^−1 and −640 ± 34 cal mol^−1 K^−1
same,increase in binding enthalpy as temperature increased,Efl1 R1086Q; 25 °C to 35 °C,~ 6 kcal mol^−1
same,"Nconfres (number of residues changing conformation, absolute value)","Efl1 R1086Q; +Mg^2+, 30 °C",21
same,"Nconfrotb (number of routable bonds changing conformation, absolute value)","Efl1 R1086Q; +Mg^2+, 30 °C",30
same,ΔCpconf,"Efl1 R1086Q; +Mg^2+, 30 °C",−222 cal mol^−1 K^−1
same,ΔSb,"Efl1 R1086Q; +Mg^2+, 30 °C",7 cal mol^−1 K^−1
same,ΔSconf,"Efl1 R1086Q; +Mg^2+, 30 °C",−49 cal mol^−1 K^−1
same,ΔSsolv,"Efl1 R1086Q; +Mg^2+, 30 °C",65 cal mol^−1 K^−1
same,−ΔASAconf,"Efl1 R1086Q; +Mg^2+, 30 °C",996 Å^2
same,-TΔs,Efl1 R1086Q; [1],-2.3 kcal/mol
same,Δg,Efl1 R1086Q; [1],1.3 kcal/mol
same,Δh,Efl1 R1086Q; [1],3.5 kcal/mol
same,κ (heterotropic cooperativity),Efl1 R1086Q; [1],0.1
same,-TΔs,Efl1 R1086Q; [2],-2.4 kcal/mol
same,Δg,Efl1 R1086Q; [2],1.2 kcal/mol
same,Δh,Efl1 R1086Q; [2],3.6 kcal/mol
same,κ (heterotropic cooperativity),Efl1 R1086Q; [2],0.1
same,-TΔs,Efl1 R1086Q; [3],-2.1 kcal/mol
same,Δg,Efl1 R1086Q; [3],1.2 kcal/mol
same,Δh,Efl1 R1086Q; [3],3.3 kcal/mol
same,κ (heterotropic cooperativity),Efl1 R1086Q; [3],0.2
same,-TΔs,Efl1 R1086Q; [4],-1.6 kcal/mol
same,Δg,Efl1 R1086Q; [4],-0.6 kcal/mol
same,Δh,Efl1 R1086Q; [4],1.0 kcal/mol
same,κ (heterotropic cooperativity),Efl1 R1086Q; [4],2.7
same,-TΔs,Efl1 R1086Q; [5],-1.1 kcal/mol
same,Δg,Efl1 R1086Q; [5],-0.8 kcal/mol
same,Δh,Efl1 R1086Q; [5],0.3 kcal/mol
same,κ (heterotropic cooperativity),Efl1 R1086Q; [5],3.6
same,-TΔs,Efl1 R1086Q; [6],-1.4 kcal/mol
same,Δg,Efl1 R1086Q; [6],-0.9 kcal/mol
same,Δh,Efl1 R1086Q; [6],0.5 kcal/mol
same,κ (heterotropic cooperativity),Efl1 R1086Q; [6],4.6
same,-TΔs,Efl1 R1086Q; [7],-3.1 kcal/mol
same,Δg,Efl1 R1086Q; [7],1.06 kcal/mol
same,Δh,Efl1 R1086Q; [7],4.2 kcal/mol
same,κ (heterotropic cooperativity),Efl1 R1086Q; [7],0.2
same,-TΔs,Efl1 R1086Q; [8],-1.2 kcal/mol
same,Δg,Efl1 R1086Q; [8],1.2 kcal/mol
same,Δh,Efl1 R1086Q; [8],2.3 kcal/mol
same,κ (heterotropic cooperativity),Efl1 R1086Q; [8],0.1
same,Δg,Efl1 R1086Q; [9],1.3 kcal/mol
same,Δh,Efl1 R1086Q; [9],1.2 kcal/mol
same,κ (heterotropic cooperativity),Efl1 R1086Q; [9],0.1
same,Kd,"Efl1 R1086Q; +Mg^2+, 25 °C",24 ± 3 µM
same,Kd,"Efl1 R1086Q; +Mg^2+, 30 °C",28 ± 6 µM
same,Kd,"Efl1 R1086Q; +Mg^2+, 35 °C",29 ± 8 µM
same,Kd,"Efl1 R1086Q; −Mg^2+, 25 °C",3 ± 0.4 µM
same,Kd,"Efl1 R1086Q; −Mg^2+, 30 °C",4 ± 0.6 µM
same,Kd,"Efl1 R1086Q; −Mg^2+, 35 °C",4 ± 0.6 µM
same,-TΔSb,"Efl1 R1086Q; +Mg^2+, 25 °C",-3.19 kcal/mol
same,ΔGb,"Efl1 R1086Q; +Mg^2+, 25 °C",-6.29 kcal/mol
same,ΔHb,"Efl1 R1086Q; +Mg^2+, 25 °C",-3.1 ± 0.1 kcal/mol
same,-TΔSb,"Efl1 R1086Q; +Mg^2+, 30 °C",-2.20 kcal/mol
same,ΔGb,"Efl1 R1086Q; +Mg^2+, 30 °C",-6.30 kcal/mol
same,ΔHb,"Efl1 R1086Q; +Mg^2+, 30 °C",-4.1 ± 0.6 kcal/mol
same,-TΔSb,"Efl1 R1086Q; +Mg^2+, 35 °C",-0.59 kcal/mol
same,ΔGb,"Efl1 R1086Q; +Mg^2+, 35 °C",-6.39 kcal/mol
same,ΔHb,"Efl1 R1086Q; +Mg^2+, 35 °C",-5.8 ± 0.2 kcal/mol
same,ΔCpb,Efl1 R1086Q; +Mg^2+,−270 ± 40 cal mol^−1 K^−1 and −270 cal mol^−1 K^−1
same,-TΔSb,"Efl1 R1086Q; −Mg^2+, 25 °C",-0.94 kcal/mol
same,ΔGb,"Efl1 R1086Q; −Mg^2+, 25 °C",-7.54 kcal/mol
same,ΔHb,"Efl1 R1086Q; −Mg^2+, 25 °C",-6.6 ± 0.2 kcal/mol
same,-TΔSb,"Efl1 R1086Q; −Mg^2+, 30 °C",0.22 kcal/mol
same,ΔGb,"Efl1 R1086Q; −Mg^2+, 30 °C",-7.47 kcal/mol
same,ΔHb,"Efl1 R1086Q; −Mg^2+, 30 °C",-7.7 ± 0.3 kcal/mol
same,-TΔSb,"Efl1 R1086Q; −Mg^2+, 35 °C",1.55 kcal/mol
same,ΔGb,"Efl1 R1086Q; −Mg^2+, 35 °C",-7.55 kcal/mol
same,ΔHb,"Efl1 R1086Q; −Mg^2+, 35 °C",-9.1 ± 0.3 kcal/mol
same,ΔCpb,Efl1 R1086Q; −Mg^2+,−250 cal mol^−1 K^−1 and −250 ± 17 cal mol^−1 K^−1
same,surface buried by the conformational change,"Efl1 R1086Q; refers to Table 3, 30 °C",~ 1000 Å
same,"Nconfres (number of residues changing conformation, absolute value)","Efl1 R1086Q; −Mg^2+, 30 °C",21
same,ΔCpconf,"Efl1 R1086Q; −Mg^2+, 30 °C",−220 cal mol^−1 K^−1
same,ΔSb,"Efl1 R1086Q; −Mg^2+, 30 °C",−1 cal mol^−1 K^−1
same,ΔSconf,"Efl1 R1086Q; −Mg^2+, 30 °C",−53 cal mol^−1 K^−1
same,ΔSsolv,"Efl1 R1086Q; −Mg^2+, 30 °C",60 cal mol^−1 K^−1
same,−ΔASAconf,"Efl1 R1086Q; −Mg^2+, 30 °C",987 Å^2
